Source: ChEMBL document CHEMBL1137630, “Development of resistance in wild-type and hypermutable Pseudomonas aeruginosa strains exposed to clinical pharmacokinetic profiles of meropenem and ceftazidime simulated in vitro” (Antimicrob Agents Chemother, 2007)
Values after ≈ are worked out from the molar mass of the structure shown. Active and inactive are the calls of the source. The rule behind the calls is not given here.

Tests used:
Pseudomonas aeruginosa [1] = experiment: Antibacterial activity against hypermutable Pseudomonas aeruginosa 12-09-15/MEM mutant by broth microdilution method
[2] = %T>MIC against Pseudomonas aeruginosa PAO1 in in vitro PK/PD model at 1 g infused thrice daily at 8 hrs interval; type: functional
Pseudomonas aeruginosa [3] = experiment: microbe, parasite or virus in culture; conditions: isolate 12-09-15
Description: Antibacterial activity against hypermutable Pseudomonas aeruginosa isolate 12-09-15 by CLSI broth microdilution method

Pseudomonas aeruginosa [4] = experiment: Antibacterial activity against Pseudomonas aeruginosa PAO1 in in vitro PK/PD model assessed as AAC (0 to 8 hrs) at 1 g infused thrice daily at 8 hrs interval measured after first dose; type: functional
Pseudomonas aeruginosa [5] = experiment: Antibacterial activity against Pseudomonas aeruginosa PAO1 assessed as reduction of bacterial count in in vitro PK/PD model at 1 g infused every 8 hrs interval measured after second dose relative to initial inoculum; type: functional
[6] = Half life in in vitro PK/PD model at 1 g infused thrice daily at 8 hrs interval; type: ADME; conditions: iv
Pseudomonas aeruginosa [7] = experiment: Antibacterial activity against hypermutable Pseudomonas aeruginosa isolate 12-09-15 assessed as maximum bactericidal effect in in vitro PK/PD model by measuring change in bacterial count at 1 g infused every 8 hrs interval measured 3 hrs after first dose relative to initial inoculum; type: functional
[8] = Ratio of Cmax in in vitro PK/PD model at 1 g infused at every 8 hrs intervals to MIC for Pseudomonas aeruginosa PAO1; type: functional
Pseudomonas aeruginosa [9] = experiment: Antibacterial activity against hypermutable Pseudomonas aeruginosa isolate 12-09-15 assessed as change in bacterial count in in vitro PK/PD model at 1 g infused every 8 hrs interval measured after 8 hrs relative to initial inoculum; type: functional, organism-based
Pseudomonas aeruginosa [10] = experiment: Antibacterial activity against Pseudomonas aeruginosa PAO1 assessed as maximum bactericidal effect in in vitro PK/PD model by measuring change in bacterial count at 1 g infused every 8 hrs interval measured 1 hr after first dose relative to initial inoculum; type: functional
Pseudomonas aeruginosa [11] = experiment: Antibacterial activity against Pseudomonas aeruginosa PAO1 assessed as bacterial count in in vitro PK/PD model at 1 g infused every 8 hrs interval measured 40 hrs after first dose relative to initial inoculum; type: functional, organism-based
Pseudomonas aeruginosa [12] = experiment: Antibacterial activity against hypermutable Pseudomonas aeruginosa isolate 12-09-15 assessed as bacterial count in in vitro PK/PD model at 1 g infused every 8 hrs interval measured 40 hrs after first dose relative to initial inoculum; type: functional, organism-based
Pseudomonas aeruginosa [13] = experiment: Antibacterial activity against Pseudomonas aeruginosa PAO1 assessed as change in bacterial count in in vitro PK/PD model at 1 g infused every 8 hrs interval measured after 8 hrs relative to initial inoculum; type: functional, organism-based
Pseudomonas aeruginosa [14] = experiment: Antibacterial activity against Pseudomonas aeruginosa PAO1/MEM mutant by CLSI broth microdilution method; type: functional
Pseudomonas aeruginosa [15] = experiment: Antibacterial activity against Pseudomonas aeruginosa PAO1 in in vitro PK/PD model assessed as AAC (0 to 24 hrs) at 1 g infused thrice daily at 8 hrs interval; type: functional
[16] = Ratio of Cmax in in vitro PK/PD model at 1 g infused at every 8 hrs intervals to MIC for hypermutable Pseudomonas aeruginosa isolate 12-09-15; type: functional
Pseudomonas aeruginosa [17] = experiment: Antibacterial activity against Pseudomonas aeruginosa PAO1 by CLSI broth microdilution method; type: functional
Pseudomonas aeruginosa [18] = experiment: Antibacterial activity against hypermutable Pseudomonas aeruginosa isolate 12-09-15 in in vitro PK/PD model assessed as AAC (0 to 24 hrs) at 1 g infused thrice daily at 8 hrs interval; type: functional
[19] = %T>MIC against hypermutable Pseudomonas aeruginosa isolate 12-09-15 in in vitro PK/PD model at 1 g infused thrice daily at 8 hrs interval; type: functional
[20] = Cmax in PK/PD in vitro model infused with 1g at 8hr intervals; type: ADME; parameters: dose 1 g; conditions: iv
Pseudomonas aeruginosa [21] = experiment: Antibacterial activity against Pseudomonas aeruginosa PAO1/CAZ mutant by CLSI broth microdilution method; type: functional
Pseudomonas aeruginosa [22] = experiment: Antibacterial activity against Pseudomonas aeruginosa PAO1 assessed as reduction of bacterial count in in vitro PK/PD model at 2 g infused every 8 hrs interval measured after first dose relative to initial inoculum; type: functional, organism-based
Pseudomonas aeruginosa [23] = experiment: Antibacterial activity against Pseudomonas aeruginosa PAO1 assessed as bacterial count in in vitro PK/PD model at 2 g infused every 8 hrs interval measured 40 hrs after first dose relative to initial inoculum; type: functional, organism-based
[24] = %T>MIC against hypermutable Pseudomonas aeruginosa 12-09-15 isolate in in vitro PK/PD model at 2 g infused thrice daily at 8 hrs interval; type: functional
[25] = Half life in in vitro PK/PD model at 2 g infused thrice daily at 8 hrs interval; type: ADME; conditions: iv
[26] = Cmax in PK/PD in vitro model infused with 2g at 8hr intervals; type: ADME; parameters: dose 2 g; conditions: iv
Pseudomonas aeruginosa [27] = experiment: Antibacterial activity against Pseudomonas aeruginosa PAO1 in in vitro PK/PD model assessed as AAC (0 to 24 hrs) at 2 g infused thrice daily at 8 hrs interval; type: functional
Pseudomonas aeruginosa [28] = experiment: Antibacterial activity against Pseudomonas aeruginosa PAO1 assessed as reduction of bacterial count in in vitro PK/PD model at 2 g infused every 8 hrs interval measured after second dose relative to initial inoculum; type: functional
Pseudomonas aeruginosa [29] = experiment: Antibacterial activity against Pseudomonas aeruginosa PAO1 assessed as maximum bactericidal effect in in vitro PK/PD model by measuring change in bacterial count at 2 g infused every 8 hrs interval measured 17.5 hrs after initial dose relative to initial inoculum
Pseudomonas aeruginosa [30] = experiment: Antibacterial activity against Pseudomonas aeruginosa PAO1 in in vitro PK/PD model assessed as AAC (0 to 8 hrs) at 2 g infused thrice daily at 8 hrs interval measured after first dose; type: functional
Pseudomonas aeruginosa [31] = experiment: Antibacterial activity against Pseudomonas aeruginosa PAO1 at 30 ug/disk in absence of cephalosporinase inhibitor cloxacillin by disk diffusion test; type: functional; conditions: read-out: DIZ
Pseudomonas aeruginosa [32] = experiment: Antibacterial activity against Pseudomonas aeruginosa PAO1/CAZ mutant at 30 ug/disk in absence of cephalosporinase inhibitor cloxacillin by disk diffusion test; type: functional; conditions: read-out: DIZ
Pseudomonas aeruginosa [33] = experiment: Antibacterial activity against Pseudomonas aeruginosa PAO1 at 30 ug/disk in presence of cephalosporinase inhibitor cloxacillin by disk diffusion test; type: functional; conditions: read-out: DIZ
Pseudomonas aeruginosa [34] = experiment: Antibacterial activity against Pseudomonas aeruginosa PAO1/CAZ mutant at 30 ug/disk in presence of cephalosporinase inhibitor cloxacillin by disk diffusion test; type: functional; conditions: read-out: DIZ
[35] = %T>MIC against Pseudomonas aeruginosa PAO1 in in vitro PK/PD model at 2 g infused thrice daily at 8 hrs interval; type: functional

SMILES: C[C@@H](O)[C@H]1C(=O)N2C(C(=O)O)=C(S[C@@H]3CN[C@H](C(=O)N(C)C)C3)[C@H](C)[C@H]12 [MEROPENEM]
- MIC (Pseudomonas aeruginosa [1]): 16 µg/mL (≈ 41.7 µM)
- T>MIC [2]: 66.7%
- MIC (Pseudomonas aeruginosa [3]): 2 µg/mL (≈ 5.22 µM)
- AAC (Pseudomonas aeruginosa [4]): 5.3 deltalog10CFU/ml.hr
- deltalog10CFU (Pseudomonas aeruginosa [5]): -0.83 /ml
- half-life [6]: 0.45 h
- deltalog10CFU (Pseudomonas aeruginosa [7]): -1.23 /ml
- Ratio [8]: 112
- Activity (Pseudomonas aeruginosa [9]): inactive
- deltalog10CFU (Pseudomonas aeruginosa [10]): -1.09 /ml
- Activity (Pseudomonas aeruginosa [11]): inactive
- Activity (Pseudomonas aeruginosa [12]): inactive
- Activity (Pseudomonas aeruginosa [13]): inactive
- MIC (Pseudomonas aeruginosa [14]): 4 µg/mL (≈ 10.4 µM)
- AAC (Pseudomonas aeruginosa [15]): -22.46 deltalog10CFU/ml.hr
- Ratio [16]: 28.1
- MIC (Pseudomonas aeruginosa [17]): 0.5 µg/mL (≈ 1.3 µM)
- AAC (Pseudomonas aeruginosa [18]): -19.58 deltalog10CFU/ml.hr
- T>MIC [19]: 41.7%
- Cmax [20]: 56.1 µg/mL

SMILES: CCN1CCN(C(=O)N[C@@H](C(=O)N[C@@H]2C(=O)N3[C@@H]2SC(C)(C)[C@@H]3C(=O)O)c2ccccc2)C(=O)C1=O [PIPERACILLIN]
- MIC (Pseudomonas aeruginosa [21]): 64 µg/mL (≈ 124 µM)
- MIC (Pseudomonas aeruginosa [17]): 4 µg/mL (≈ 7.73 µM)

SMILES: C[C@@H](O)[C@H]1C(=O)N2C(C(=O)O)=C(SCCNC=N)C[C@H]12 [IMIPENEM ANHYDROUS]
- MIC (Pseudomonas aeruginosa [1]): 16 µg/mL (≈ 53.4 µM)
- MIC (Pseudomonas aeruginosa [3]): 4 µg/mL (≈ 13.4 µM)
- MIC (Pseudomonas aeruginosa [14]): 16 µg/mL (≈ 53.4 µM)
- MIC (Pseudomonas aeruginosa [17]): 2 µg/mL (≈ 6.68 µM)

SMILES: C[C@H]1COc2c(N3CCN(C)CC3)c(F)cc3c(=O)c(C(=O)O)cn1c23.C[C@H]1COc2c(N3CCN(C)CC3)c(F)cc3c(=O)c(C(=O)O)cn1c23.O [LEVOFLOXACIN]
- MIC (Pseudomonas aeruginosa [14]): 0.5 µg/mL
- MIC (Pseudomonas aeruginosa [21]): 0.5 µg/mL
- MIC (Pseudomonas aeruginosa [17]): 0.5 µg/mL

SMILES: CC(C)(O/N=C(\C(=O)N[C@@H]1C(=O)N2C(C(=O)[O-])=C(C[n+]3ccccc3)CS[C@H]12)c1csc(N)n1)C(=O)O [CEFTAZIDIME]
- Activity (Pseudomonas aeruginosa [22]): inactive
- Activity (Pseudomonas aeruginosa [23]): inactive
- T>MIC [24]: 45.8%
- MIC (Pseudomonas aeruginosa [3]): 16 µg/mL (≈ 29.3 µM)
- half-life [25]: 1.96 h
- Cmax [26]: 174 µg/mL
- AAC (Pseudomonas aeruginosa [27]): 9.29 deltalog10CFU/ml.hr
- fold change (FC) (Pseudomonas aeruginosa [28]): 1
- deltalog10CFU (Pseudomonas aeruginosa [29]): -1.28 /ml
- AAC (Pseudomonas aeruginosa [30]): -0.19 deltalog10CFU/ml.hr
- zone of inhibition at 30 µg/disc (Pseudomonas aeruginosa [31]): 27 mm
- zone of inhibition at 30 µg/disc (Pseudomonas aeruginosa [32]): 17 mm
- zone of inhibition at 30 µg/disc (Pseudomonas aeruginosa [33]): 27 mm
- zone of inhibition at 30 µg/disc (Pseudomonas aeruginosa [34]): 27 mm
- T>MIC [35]: 100%
- MIC (Pseudomonas aeruginosa [21]): 32 µg/mL (≈ 58.5 µM)
- MIC (Pseudomonas aeruginosa [17]): 2 µg/mL (≈ 3.66 µM)
